Structures are written as SMILES. The source made the active and inactive calls. How the calls were made is not given here.

Data on 6 molecules can be found in PubChem BioAssay AID1259407 (Chemical Carcinogenesis Research Information System (CCRIS), 2018).

The test system of this data set is CCRIS mutagenicity, Ames/micronucleus/aberration tests. Put plainly: CCRIS mutagenicity studies.
Setting [1] is: Test System: AMES SALMONELLA TYPHIMURIUM, Strain/Indicator: TA98, Metabolic Activation: RAT, LIVER, S-9, AROCLOR 1254, Method: STANDARD PLATE.
[2] abbreviates: Test System: AMES SALMONELLA TYPHIMURIUM, Strain/Indicator: TA100, Metabolic Activation: NONE, Method: STANDARD PLATE.

As to `O=C(/C=C/c1ccc([N+](=O)[O-])cc1)c1ccccc1`, the mutagenic call was “active; positive” (Test System: AMES SALMONELLA TYPHIMURIUM, Strain/Indicator: TA98, Metabolic Activation: HAMSTER, LIVER, S-9, AROCLOR 1254, Method: STANDARD PLATE); “inactive; negative” (Test System: AMES SALMONELLA TYPHIMURIUM, Strain/Indicator: TA98, Metabolic Activation: NONE, Method: STANDARD PLATE); “active; positive” under setting [1]; “inactive; negative” (Test System: AMES SALMONELLA TYPHIMURIUM, Strain/Indicator: TA100(1,8-DNP6), Metabolic Activation: NONE, Method: PREINCUBATION); “inactive; negative” (Test System: AMES SALMONELLA TYPHIMURIUM, Strain/Indicator: TA100(1,8-DNP6), Metabolic Activation: RAT, LIVER, S-9, AROCLOR 1254, Method: PREINCUBATION); “inactive; negative” (Test System: AMES SALMONELLA TYPHIMURIUM, Strain/Indicator: TA100(NR), Metabolic Activation: NONE, Method: PREINCUBATION). Further, the mutagenic call (Test System: AMES SALMONELLA TYPHIMURIUM, Strain/Indicator: TA100(NR), Metabolic Activation: RAT, LIVER, S-9, AROCLOR 1254, Method: PREINCUBATION) was “inactive; negative”; the mutagenic call (Test System: AMES SALMONELLA TYPHIMURIUM, Strain/Indicator: TA100, Metabolic Activation: HAMSTER, LIVER, S-9, AROCLOR 1254, Method: STANDARD PLATE) was “active; positive”; the mutagenic call (Test System: AMES SALMONELLA TYPHIMURIUM, Strain/Indicator: TA100, Metabolic Activation: NONE, Method: PREINCUBATION) was “inactive; negative”; the mutagenic call under setting [2] is “inactive; negative”; the mutagenic call (Test System: AMES SALMONELLA TYPHIMURIUM, Strain/Indicator: TA100, Metabolic Activation: RAT, LIVER, S-9, AROCLOR 1254, Method: STANDARD PLATE) was “active; positive”; the mutagenic call (Test System: AMES SALMONELLA TYPHIMURIUM, Strain/Indicator: TA100, Metabolic Activation: RAT, LIVER, S-9, AROCLOR, Method: PREINCUBATION) was “active; positive”. Also, the mutagenic call was “inactive; negative. reevaluation of results: negative” (Test System: MOUSE LYMPHOMA, Strain/Indicator: L5178Y (TK+/TK-), Metabolic Activation: NONE, Method: SUSPENSION/PLATE) and “inactive; negative. reevaluation of results: negative” (Test System: MOUSE LYMPHOMA, Strain/Indicator: L5178Y (TK+/TK-), Metabolic Activation: RAT, LIVER, S-9, AROCLOR 1254, Method: SUSPENSION/PLATE).
For `c1cnc2ccc3c(c2c1)CC[C@@H]1O[C@H]31`, the mutagenic call under setting [2] was “inactive; negative”.
With `O=CNc1ccc2c(c1)Cc1ccccc1-2`, the mutagenic call under setting [1] is “active; positive”.
As to `C1CCC(C(CC2CCCCN2)C2CCCCC2)CC1` (stereo not drawn), the mutagenic call is “inactive; negative” (Test System: AMES SALMONELLA TYPHIMURIUM, Strain/Indicator: TA100(FR1), Metabolic Activation: NONE, Method: STANDARD PLATE); “inactive; negative” (Test System: AMES SALMONELLA TYPHIMURIUM, Strain/Indicator: TA100(FR1), Metabolic Activation: RAT, LIVER, S-9, PHENOBARBITAL AND 3-METHYLCHOLANTHRENE, Method: STANDARD PLATE); “inactive; negative” under setting [2]; “inactive; negative” (Test System: AMES SALMONELLA TYPHIMURIUM, Strain/Indicator: TA100, Metabolic Activation: RAT, LIVER, S-9, PHENOBARBITAL AND 3-METHYLCHOLANTHRENE, Method: STANDARD PLATE); “inactive; negative” (Test System: CHINESE HAMSTER V-79, Strain/Indicator: V-79/6-THIOGUANINE, Metabolic Activation: NONE); “active; positive” (Test System: CHINESE HAMSTER V-79, Strain/Indicator: V-79/6-THIOGUANINE, Metabolic Activation: RAT, LIVER, HEPATOCYTES). Further, the mutagenic call runs as follows: (Test System: CHINESE HAMSTER V-79, Strain/Indicator: V-79/OUABAIN, Metabolic Activation: NONE) “inactive; negative”; (Test System: CHINESE HAMSTER V-79, Strain/Indicator: V-79/OUABAIN, Metabolic Activation: RAT, LIVER, HEPATOCYTES) “inactive; negative”.
For the molecule `CC(=O)Oc1c2ccccc2c2ccc3cccc4ccc1c2c43`, where the note is “Test System: UDS RODENT PRIMARY CELLS, Strain/Indicator: THY INCORP (NON-S-PHASE), Metabolic Activation: NONE, Method: AUTORADIOGRAPHY”, the mutagenic call is “active; positive”.
Turning to `CC[N+]([O-])=NC`, the mutagenic call reads like this: (Test System: AMES SALMONELLA TYPHIMURIUM, Strain/Indicator: TA1535, Metabolic Activation: HAMSTER, LIVER, S-9, AROCLOR 1254, Method: PREINCUBATION) “inactive; negative”; (Test System: AMES SALMONELLA TYPHIMURIUM, Strain/Indicator: TA1535, Metabolic Activation: NONE, Method: PREINCUBATION) “inactive; negative”; (Test System: AMES SALMONELLA TYPHIMURIUM, Strain/Indicator: TA1535, Metabolic Activation: RAT, LIVER, S-9, AROCLOR 1254, Method: PREINCUBATION) “inactive; negative”.
